# Experimental data as given in patent US20250197374A1, “WEE1 DEGRADING COMPOUNDS AND USES THEREOF” (BRISTOL-MYERS SQUIBB COMPANY, priority 2023, published 2025).
# How the values were obtained:
# Type in all cases: cell-based
# [1] = target: T1, WEE1 (Homo sapiens, UniProt P30291+Q96SW2); assay: WEE1-ePL degradation assay (293T-LentiX, InCELL Hunter luminescence, 4 hr); settings: for 293T-LentiX WEE1-ePL Degradation 4 hr YMin (%): lower limit of fit, % of DMSO control signal remaining; for DC50: LentiX-HEK293T cells expressing WEE1-ePL, 4 hr incubation, read-out: 293T-LentiX WEE1-ePL Degradation 4 hr EC50
# T1 construct: C-terminal ePL-tagged (DiscoverX, Fremont, CA) full-length WEE1 expression construct; expressed in transfected cells; host or cells: LentiX-HEK293T (Invitrogen), lentivirally transduced; the cells also over-express GSPT1-GN
# T1 sequence (P30291 whole entry): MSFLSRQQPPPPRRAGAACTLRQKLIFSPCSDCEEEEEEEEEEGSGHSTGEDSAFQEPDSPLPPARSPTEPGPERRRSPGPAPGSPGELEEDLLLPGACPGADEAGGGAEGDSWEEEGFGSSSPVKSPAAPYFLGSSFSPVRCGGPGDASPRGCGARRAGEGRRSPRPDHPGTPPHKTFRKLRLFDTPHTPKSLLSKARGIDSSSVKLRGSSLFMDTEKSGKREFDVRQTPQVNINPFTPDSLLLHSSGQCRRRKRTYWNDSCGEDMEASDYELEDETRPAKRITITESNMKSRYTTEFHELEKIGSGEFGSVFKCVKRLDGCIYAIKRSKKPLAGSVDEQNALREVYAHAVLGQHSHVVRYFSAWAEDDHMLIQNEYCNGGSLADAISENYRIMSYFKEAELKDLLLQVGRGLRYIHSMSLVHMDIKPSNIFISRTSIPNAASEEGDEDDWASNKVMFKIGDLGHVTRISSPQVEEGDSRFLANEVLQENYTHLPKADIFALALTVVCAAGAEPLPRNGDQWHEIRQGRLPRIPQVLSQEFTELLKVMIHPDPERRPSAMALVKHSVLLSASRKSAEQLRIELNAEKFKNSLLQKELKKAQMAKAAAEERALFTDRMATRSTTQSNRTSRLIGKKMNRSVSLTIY
# T1 sequence (Q96SW2 whole entry): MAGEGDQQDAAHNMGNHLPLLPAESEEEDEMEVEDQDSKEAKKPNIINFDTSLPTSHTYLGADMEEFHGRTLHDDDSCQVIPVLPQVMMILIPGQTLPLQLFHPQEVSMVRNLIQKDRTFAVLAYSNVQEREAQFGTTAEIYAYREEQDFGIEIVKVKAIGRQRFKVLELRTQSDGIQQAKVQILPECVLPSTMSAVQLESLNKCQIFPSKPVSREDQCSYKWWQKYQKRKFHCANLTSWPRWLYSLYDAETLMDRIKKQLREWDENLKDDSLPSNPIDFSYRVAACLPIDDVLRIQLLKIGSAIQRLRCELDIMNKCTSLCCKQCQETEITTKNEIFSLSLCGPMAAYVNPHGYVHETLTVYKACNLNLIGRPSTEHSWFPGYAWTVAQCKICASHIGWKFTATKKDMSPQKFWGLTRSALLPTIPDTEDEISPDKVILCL
# T1 sequence (Q16531 whole entry partner): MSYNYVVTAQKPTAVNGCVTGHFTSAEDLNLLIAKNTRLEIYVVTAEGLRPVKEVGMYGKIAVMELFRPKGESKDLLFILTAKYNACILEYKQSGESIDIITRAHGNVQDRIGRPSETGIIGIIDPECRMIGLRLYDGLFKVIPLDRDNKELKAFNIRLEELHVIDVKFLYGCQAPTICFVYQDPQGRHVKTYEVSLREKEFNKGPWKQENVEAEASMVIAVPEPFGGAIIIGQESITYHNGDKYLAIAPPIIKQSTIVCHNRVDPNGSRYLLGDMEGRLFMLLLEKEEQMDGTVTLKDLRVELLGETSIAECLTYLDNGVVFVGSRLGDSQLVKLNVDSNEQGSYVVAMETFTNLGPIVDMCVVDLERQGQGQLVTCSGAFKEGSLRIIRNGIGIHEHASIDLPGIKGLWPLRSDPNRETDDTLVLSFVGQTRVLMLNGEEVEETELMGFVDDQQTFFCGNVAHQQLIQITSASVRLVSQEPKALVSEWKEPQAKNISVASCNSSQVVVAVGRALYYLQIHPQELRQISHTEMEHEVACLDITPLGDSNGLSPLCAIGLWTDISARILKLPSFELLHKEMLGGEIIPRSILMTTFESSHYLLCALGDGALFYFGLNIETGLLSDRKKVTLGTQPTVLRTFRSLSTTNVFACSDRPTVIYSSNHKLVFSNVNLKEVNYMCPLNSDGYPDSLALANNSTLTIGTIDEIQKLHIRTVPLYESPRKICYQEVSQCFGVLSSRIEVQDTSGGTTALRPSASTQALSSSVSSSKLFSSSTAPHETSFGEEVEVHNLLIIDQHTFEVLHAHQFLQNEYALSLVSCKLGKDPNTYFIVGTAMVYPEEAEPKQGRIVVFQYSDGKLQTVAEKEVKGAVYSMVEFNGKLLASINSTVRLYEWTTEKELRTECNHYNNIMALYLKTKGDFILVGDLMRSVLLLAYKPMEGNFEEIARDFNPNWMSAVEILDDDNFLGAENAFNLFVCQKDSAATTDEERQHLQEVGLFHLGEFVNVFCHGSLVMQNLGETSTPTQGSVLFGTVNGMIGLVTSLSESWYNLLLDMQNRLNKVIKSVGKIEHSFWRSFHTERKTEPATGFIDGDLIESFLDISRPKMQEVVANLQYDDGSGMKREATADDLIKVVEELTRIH
# How it was run: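 LentiX-HEK293T cells expressing C-terminally ePL-tagged full-length WEE1 plus non-degradable GSPT1-GN (G575N, N-terminal 158 aa truncated). Treated 4 h at 37 °C with a 10-point, 3-fold series from 1 or 10 µM, then read by InCELL Hunter luminescence. EC50 from four-parameter logistic fit, Ymax set by DMSO control.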
# [2] = test system: MKN45 cells; assay: MKN45 cell proliferation assay (Cell-Titer-Glo, 120 hr); settings: for EC50: Homo sapiens, MKN-45, 120 h, read-out: MKN45 Cell Prolif. 120 hr EC50; for MKN45 Cell Prolif. 120 hr YMin (%): minimal percent of DMSO control observed
# How it was run: (§1)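 MKN45 (400/well) and MDA-MB-231 (800/well) cells in RPMI with 10% FBS were exposed to 10-point half-log doses from 1 or 10 uM (0.1% DMSO) for 120 h at 37 °C. Viability was read by CellTiter-Glo luminescence. EC50 came from blank-subtracted, %DMSO four-parameter fits, with Ymin-obs as the lowest %DMSO observed.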
# [3] = test system: MDA-MB-231 cells; assay: MDA-MB-231 cell proliferation assay (Cell-Titer-Glo, 120 hr); settings: for EC50: Homo sapiens, MDA-MB-231, 120 h, read-out: MDA-MB 231 Cell Prolif. 120 hr EC50; for MDA-MB 231 Cell Prolif. 120 hr YMin (%): minimal percent of DMSO control observed
# How it was run: as §1
293T-LentiX WEE1-ePL Degradation 4 hr YMin (%) [1] [%],EC50 [2] [nM],EC50 [3] [nM],DC50 [1] [nM],SMILES,MKN45 Cell Prolif. 120 hr YMin (%) [2] [%],MDA-MB 231 Cell Prolif. 120 hr YMin (%) [3] [%]
30.8,1,83,,"COC[C@@H]1CN(Cc2ccc3nc(C4CCOC(C)(C)C4)ccc3c2)C[C@H]1Oc1ccc2c(c1)CN([C@H]1CCC(=O)NC1=O)C2=O (stereo partly drawn) [Example 84, (3S)-3-(5-{[(3S,4S)-1-{[2-(2,2-dimethyloxan-4-yl)quinolin-6-yl]methyl}-4-(methoxymethyl)pyrrolidin-3-yl]oxy}-1-oxo-2,3-dihydro-1H-isoindol-2-yl)piperidine-2,6-dione]",10.5,21.0
27.9,1,22,1,"COC[C@@H]1CN(Cc2cc(F)c3nc(N4CCN(C(C)=O)C5(CC5)C4)ncc3c2)C[C@H]1Oc1ccc2c(c1)CN([C@H]1CCC(=O)NC1=O)C2=O [Example 85, (3S)-3-(5-{[(3S,4S)-1-[(2-{4-acetyl-4,7-diazaspiro[2.5]octan-7-yl}-8-fluoroquinazolin-6-yl)methyl]-4-(methoxymethyl)pyrrolidin-3-yl]oxy}-1-oxo-2,3-dihydro-1H-isoindol-2-yl)piperidine-2,6-dione]",11.1,16.6
28.5,2,51,3,"COC[C@@H]1CN(Cc2cc(F)c3nc(N4CCN(C(C)=O)C5(COC5)C4)ncc3c2)C[C@H]1Oc1ccc2c(c1)CN([C@H]1CCC(=O)NC1=O)C2=O [Example 86, (S)-3-(5-(((3S,4S)-1-((2-(5-acetyl-2-oxa-5,8-diazaspiro[3.5]nonan-8-yl)-8-fluoroquinazolin-6-yl)methyl)-4-(methoxymethyl)pyrrolidin-3-yl)oxy)-1-oxoisoindolin-2-yl)piperidine-2,6-dione]",16.9,18.4
32.2,7,112,11,"COC[C@@H]1CN(Cc2cc3ccc(N4CCN(C(C)=O)C5(COC5)C4)cc3cn2)C[C@H]1Oc1ccc2c(c1)CN([C@H]1CCC(=O)NC1=O)C2=O [Example 87, (3S)-3-(5-{[(3S,4S)-1-[(7-{5-acetyl-2-oxa-5,8-diazaspiro[3.5]nonan-8-yl}isoquinolin-3-yl)methyl]-4-(methoxymethyl)pyrrolidin-3-yl]oxy}-1-oxo-2,3-dihydro-1H-isoindol-2-yl)piperidine-2,6-dione]",9.7,31.8
28.3,1,11,3,"COC[C@@H]1CN(Cc2cc3ccc(N4CCN(C(C)=O)C5(CC5)C4)cc3cn2)C[C@H]1Oc1ccc2c(c1)CN([C@H]1CCC(=O)NC1=O)C2=O [Example 88, (3S)-3-(5-{[(3S,4S)-1-[(7-{4-acetyl-4,7-diazaspiro[2.5]octan-7-yl}isoquinolin-3-yl)methyl]-4-(methoxymethyl)pyrrolidin-3-yl]oxy}-1-oxo-2,3-dihydro-1H-isoindol-2-yl)piperidine-2,6-dione]",9.1,13.1
30.2,1,9,1,"COC[C@@H]1CN(Cc2ccc3nc(N4CCN(C(C)=O)C5(CC5)C4)ccc3c2)C[C@H]1Oc1ccc2c(c1)CN([C@H]1CCC(=O)NC1=O)C2=O [Example 89, (3S)-3-(5-{[(3S,4S)-1-[(2-{4-acetyl-4,7-diazaspiro[2.5]octan-7-yl}quinolin-6-yl)methyl]-4-(methoxymethyl)pyrrolidin-3-yl]oxy}-1-oxo-2,3-dihydro-1H-isoindol-2-yl)piperidine-2,6-dione]",8.4,16.8
21.0,2,42,1,"COC[C@@H]1CN(Cc2ccc3nc(N4CCN(C(C)=O)C5(COC5)C4)ccc3c2)C[C@H]1Oc1ccc2c(c1)CN([C@H]1CCC(=O)NC1=O)C2=O [Example 90, (3S)-3-(5-{[(3S,4S)-1-[(2-{5-acetyl-2-oxa-5,8-diazaspiro[3.5]nonan-8-yl}quinolin-6-yl)methyl]-4-(methoxymethyl)pyrrolidin-3-yl]oxy}-1-oxo-2,3-dihydro-1H-isoindol-2-yl)piperidine-2,6-dione]",6.4,27.2
27.1,2,105,4,"COC[C@@H]1CN(Cc2cc(F)c3nc(C4CCOC(C)(C)C4)ncc3c2)C[C@H]1Oc1ccc2c(c1)CN([C@H]1CCC(=O)NC1=O)C2=O (stereo partly drawn) [Example 91, (3S)-3-(5-{[(3S,4S)-1-{[2-(2,2-dimethyloxan-4-yl)-8-fluoroquinazolin-6-yl]methyl}-4-(methoxymethyl)pyrrolidin-3-yl]oxy}-1-oxo-2,3-dihydro-1H-isoindol-2-yl)piperidine-2,6-dione]",10.5,9.6
28.7,1,14,1,"COC[C@@H]1CN(Cc2cc(F)c3nc(N4CCN(C(C)=O)C5(CC5)C4)ccc3c2)C[C@H]1Oc1ccc2c(c1)CN([C@H]1CCC(=O)NC1=O)C2=O [Example 92, (3S)-3-(5-{[(3S,4S)-1-[(2-{4-acetyl-4,7-diazaspiro[2.5]octan-7-yl}-8-fluoroquinolin-6-yl)methyl]-4-(methoxymethyl)pyrrolidin-3-yl]oxy}-1-oxo-2,3-dihydro-1H-isoindol-2-yl)piperidine-2,6-dione]",10.9,21.4
21.9,1,69,1,"COC[C@@H]1CN(Cc2cc(F)c3nc(N4CCN(C(C)=O)C5(COC5)C4)ccc3c2)C[C@H]1Oc1ccc2c(c1)CN([C@H]1CCC(=O)NC1=O)C2=O [Example 93, (3S)-3-(5-{[(3S,4S)-1-[(2-{5-acetyl-2-oxa-5,8-diazaspiro[3.5]nonan-8-yl}-8-fluoroquinolin-6-yl)methyl]-4-(methoxymethyl)pyrrolidin-3-yl]oxy}-1-oxo-2,3-dihydro-1H-isoindol-2-yl)piperidine-2,6-dione]",7.9,52.5
26.4,2,16,1,"COC[C@@H]1CN(Cc2ccc3nc(N4CCN(C(C)=O)C5(CC5)C4)ncc3c2)C[C@H]1Oc1ccc2c(c1)CN([C@H]1CCC(=O)NC1=O)C2=O [Example 94, (3S)-3-(5-{[(3S,4S)-1-[(2-{4-acetyl-4,7-diazaspiro[2.5]octan-7-yl}quinazolin-6-yl)methyl]-4-(methoxymethyl)pyrrolidin-3-yl]oxy}-1-oxo-2,3-dihydro-1H-isoindol-2-yl)piperidine-2,6-dione]",8.5,16.0
